# Experimental data: patent publication US20150065470A1, “Steroid Sulfatase Inhibitor Regimen for the Treatment of Endometriosis” (priority 2012, published 2015)
# Like-named read-outs stand apart in the source and are kept apart here.
# What was measured:
# [1] = biological target: T1, Steroid Sulfatase in PBMCs (Homo sapiens, UniProt P08842); experiment: STS activity in PBMCs, Example 1 (radio scintillation assay); format: in vivo; settings: for Emax: read-out: Emax (%) maximal inhibition of Steroid Sulfatase in PBMCs, Mean (SD); for STS inhibition in PBMCs: single dose 4 mg E2MATE
# T1 construct: Pharmacodynamic properties were investigated by assessment of the STS activity in PBMCs; endogenous in cells; host or cells: peripheral blood mononuclear cells (PBMCs) of dosed women
# T1 sequence (P08842 22-583): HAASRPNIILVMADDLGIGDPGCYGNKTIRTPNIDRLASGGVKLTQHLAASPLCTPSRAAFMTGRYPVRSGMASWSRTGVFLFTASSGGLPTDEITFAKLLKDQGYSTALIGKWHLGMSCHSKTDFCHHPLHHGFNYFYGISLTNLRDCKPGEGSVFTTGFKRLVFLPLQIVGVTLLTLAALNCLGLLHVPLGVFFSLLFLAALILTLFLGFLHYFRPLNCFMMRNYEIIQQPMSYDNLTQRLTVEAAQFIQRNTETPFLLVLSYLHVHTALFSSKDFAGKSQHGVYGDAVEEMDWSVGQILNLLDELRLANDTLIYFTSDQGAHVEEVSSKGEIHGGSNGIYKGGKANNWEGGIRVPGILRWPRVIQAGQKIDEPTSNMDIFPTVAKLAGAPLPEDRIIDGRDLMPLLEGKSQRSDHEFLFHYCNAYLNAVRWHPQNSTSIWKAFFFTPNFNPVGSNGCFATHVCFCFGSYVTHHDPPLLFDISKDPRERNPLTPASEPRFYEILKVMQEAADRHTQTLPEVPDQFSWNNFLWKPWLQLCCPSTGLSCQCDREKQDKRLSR
# Procedure: (§1) Treatment was started within 72 hours after the beginning of menstrual bleeding.
# The active doses tested were 0.25 mg (1st cohort), 1 mg, 4 mg and 8 mg.
# The active doses tested were 0.25 mg, 1 mg and 4 mg.
# (§2) Ovarian and endometrium transvaginal ultrasounds throughout the study (Part A and B) and an endometrial biopsy (Part B only) were performed.
# (§3) Pharmacodynamic properties were investigated by assessment of the STS activity in PBMCs and by measurement of the serum hormonal profile comprising the ratio of E1-S to E1 and DHEA-S to DHEA. […] Hormone profiles were analysed using commercially available ELISA or RIA kits.
# STS [2] = experiment: E1-S to E1 and DHEA-S to DHEA ratios, Example 1; format: in vivo, human; settings: multiple doses 0.25, 1, 4 mg weekly x4
# Procedure: as §3
# [3] = Safety, tolerability and ovarian cycle parameters, Example 1
# Procedure: as §1, §2
# STS activity in PBMCs = biological target: T2, STS activity in PBMCs (Homo sapiens, UniProt P08842); experiment: STS activity in PBMCs, Example 2 (LC-MS/MS); format: in vivo; settings: E2MATE 4 mg weekly and/or NETA 10 mg daily for 4 weeks
# T2 construct: Pharmacodynamic properties were investigated by assessment of the STS activity in PBMCs; endogenous in cells; host or cells: peripheral blood mononuclear cells (PBMCs) of dosed women
# T2 sequence (P08842 22-583): T1 sequence (P08842 22-583)
# Procedure: STS activity was determined by spiking specimens with labelled E1-S and by measuring its conversion to E1 per gram protein under standardized incubation conditions using LC-MS/MS. Protein concentration was evaluated with a validated colorimetric assay (Bradford method).
# STS [4] = experiment: Functional biomarkers of STS activity (E1-S to E1 and DHEA-S to DHEA ratios), Example 2; format: in vivo, human
# Procedure: (§4) Hormone profiles were determined as described in Example 1.
# As described before, STS converts sulphate precursors of estrogens.
# E2 and P4; T and D4A = experiment: Hormone profiles (E2, P4, T, D4A), Example 2; format: in vivo, human
# Procedure: as §4
# [5] = Pharmacokinetic model: accumulation of E2MATE+EMATE, Example 3; parameters: species or system human
# Procedure: As shown on FIG. 2, the accumulation ratio (Racc) based on the accumulation between two doses during one week time could be calculated. […] This could be achieved for example by the administration of 1 mg every 3 days or 2 mg per week (FIG. 2B).
# [6] = system: endometriosis-like lesion; settings: daily oral dose of 0.5 or 1 mg/kg for 21 days, cited from earlier work
# [7] = biological target: T3, STS activity in the uterus or in induced lesions (Mus musculus, UniProt P50427); settings: highest dose (1 mg/kg daily oral, 21 days); cited from earlier work
# T3 construct: host or cells: mouse uterus or induced endometriosis-like lesions
# T3 sequence (P50427 23-624): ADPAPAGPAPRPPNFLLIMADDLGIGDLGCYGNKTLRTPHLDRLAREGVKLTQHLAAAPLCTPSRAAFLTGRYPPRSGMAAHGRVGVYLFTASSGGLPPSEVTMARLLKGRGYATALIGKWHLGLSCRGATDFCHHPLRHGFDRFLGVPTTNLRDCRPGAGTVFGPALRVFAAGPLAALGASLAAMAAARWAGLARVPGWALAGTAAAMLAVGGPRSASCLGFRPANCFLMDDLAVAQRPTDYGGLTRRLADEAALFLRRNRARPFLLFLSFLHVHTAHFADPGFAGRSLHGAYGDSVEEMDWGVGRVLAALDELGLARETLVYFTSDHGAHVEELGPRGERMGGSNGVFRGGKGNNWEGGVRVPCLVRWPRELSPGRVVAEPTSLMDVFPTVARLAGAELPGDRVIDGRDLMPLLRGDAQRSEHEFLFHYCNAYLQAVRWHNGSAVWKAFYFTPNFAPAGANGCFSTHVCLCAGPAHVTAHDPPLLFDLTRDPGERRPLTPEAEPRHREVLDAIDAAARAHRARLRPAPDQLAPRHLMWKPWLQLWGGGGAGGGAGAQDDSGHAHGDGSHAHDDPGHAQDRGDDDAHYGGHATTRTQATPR
# [8] = multiple dose 0.25 mg E2MATE weekly for four weeks
# [9] = multiple dose 1 mg E2MATE weekly for four weeks
# [10] = multiple dose 4 mg E2MATE weekly for four weeks
# [11] = NETA treatment period, days 8 to 29
smiles,measurement,setting,value
"C[C@]12CC[C@@H]3c4ccc(OS(N)(=O)=O)cc4CC[C@H]3[C@@H]1CC[C@@H]2O [E2MATE, Estradiol-3-o-sulfamate]","AVG (%) average inhibition of Steroid Sulfatase in PBMCs, Mean (SD)",[1]; [8],22.7 (16.5) %
same,Emax,[1]; [8],42%
same,"AVG (%) average inhibition of Steroid Sulfatase in PBMCs, Mean (SD)",[1]; [9],43.5 (23.2) %
same,Emax,[1]; [9],79.5%
same,"AVG (%) average inhibition of Steroid Sulfatase in PBMCs, Mean (SD)",[1]; [10],88.4 (9.5) %
same,Emax,[1]; [10],100%
same,Emax,"[1]; po, single oral dose 0.25 mg E2MATE",59.5%
same,Emax,"[1]; po, single oral dose 1 mg E2MATE",58.7%
same,Emax,"[1]; po, single oral dose 4 mg E2MATE",99.5%
same,STS inhibition in PBMCs,[1]; Day 0 of cycle 2 (approximately 56 days after dosing),82%
same,STS inhibition in PBMCs,[1]; Day 3,96%
same,"AVG (%) average inhibition of Steroid Sulfatase in PBMCs, Mean (SD)","[1]; single oral dose 0.25 mg E2MATE, Day 1 until EOS",23.2 (14.6) %
same,"AVG (%) average inhibition of Steroid Sulfatase in PBMCs, Mean (SD)","[1]; single oral dose 1 mg E2MATE, Day 1 until EOS",25.2 (10.6) %
same,turn-over of E1-S to E1,STS [2],dose-dependent decreased turn-over
same,cycle length,[3]; in vivo,not affected
same,"endometrial thickness assessed by TVUS, between treatment groups",[3]; in vivo,no clinically relevant differences
same,number of measurable follicles / subjects with follicles >10 mm,[3]; in vivo,No clinically relevant effects
same,tolerability,"[3]; multiple doses of 0.25, 1 mg and 4 mg weekly x4",well tolerated
same,tolerability,"[3]; single doses of 0.25 mg, 1 mg, 4 mg and 8 mg",well tolerated
same,mean percentage inhibition of STS activity in PBMCs,STS activity in PBMCs; Day 4,90%
same,percentage inhibition of STS activity in PBMCs,STS activity in PBMCs; Day 113,37%
same,average inhibition of STS activity in PBMCs,STS activity in PBMCs,82.6%
same,mean maximal inhibition of STS activity in PBMCs,STS activity in PBMCs,94.7%
same,Baseline relative change of the DHEA-S/DHEA [%],STS [4]; Day 1,0%
same,Baseline relative change of the E1-S/E1 [%],STS [4]; Day 1,0%
same,Baseline relative change of the DHEA-S/DHEA [%],STS [4]; Day 8,133%
same,Baseline relative change of the E1-S/E1 [%],STS [4]; Day 8,208%
same,Baseline relative change of the DHEA-S/DHEA [%],STS [4]; Day 15,116%
same,Baseline relative change of the E1-S/E1 [%],STS [4]; Day 15,282%
same,Baseline relative change of the DHEA-S/DHEA [%],STS [4]; Day 22,113%
same,Baseline relative change of the E1-S/E1 [%],STS [4]; Day 22,218%
same,Baseline relative change of the DHEA-S/DHEA [%],STS [4]; Day 29,148%
same,Baseline relative change of the E1-S/E1 [%],STS [4]; Day 29,194%
same,Baseline relative change of the DHEA-S/DHEA [%],STS [4]; Day 57,195%
same,Baseline relative change of the E1-S/E1 [%],STS [4]; Day 57,218%
same,Baseline relative change of the DHEA-S/DHEA [%],STS [4]; Day 85,232%
same,Baseline relative change of the E1-S/E1 [%],STS [4]; Day 85,243%
same,Baseline relative change of the DHEA-S/DHEA [%],STS [4]; Day 113,175%
same,Baseline relative change of the E1-S/E1 [%],STS [4]; Day 113,400%
same,baseline relative mean increases of the DHEA-S to DHEA ratio (up to),STS [4]; [11],up to 265%
same,baseline relative mean increases of the E1-S to E1 ratio (up to),STS [4]; [11],up to 282%
same,mean concentration-time profiles in E2 and P4,"E2 and P4; T and D4A; first cycle up to Day 29, normal increase on Day 43",Normal mean concentration-time profiles
same,mean concentration-time profiles for T and D4A,E2 and P4; T and D4A; multiple dose administration,No relevant differences
same,accumulation ratio (Racc) of E2MATE+EMATE,"[5]; Cmin 504 h versus Cmin 168 h, 4 mg/week during 4 weeks",about 2.7
same,E2MATE dose necessary to maintain the blood levels reached after the loading period,[5]; after loading 4 mg/week during 4 weeks,0.36 mg/day
same,lesion weight and size,[6]; end of treatment,decreased
same,histology of the uterus (indicative of some estrogenic activity),[6],some stromal oedema was observed
same,number of lesions,[6],without a reduction
same,STS activity inhibition in the uterus or in induced lesions,[7],≤ 36%
